What follows are compounds tested against T1, ASK1 (Homo sapiens, UniProt Q99683) (assay: ASK1 Kinase Assay (Promega ASK1 Kinase Enzyme System, ADP-Glo)). Settings: enzyme 50 nM, myelin basic protein 1 μg/ml, ATP 10 μM.
T1 construct: purchased Promega V3881
Type: biochemical
Protocol: The ASK1 enzymatic assay was run following Promega ASK1 Kinase Enzyme System (Cat #V3881). The kit provides the protocol, enzymes and all reagents necessary to run an assay.
Firstly, the compounds, enzyme, substrate and ATP were diluted in provided assay buffer. The final concentration of the enzyme was 50 nM, substrate (Myelin basic protein) 1 μg/ml and ATP 10 μM. The compound and the enzyme were pre-incubated in a 384 well white solid bottom plate (Greiner, Cat #784075) for 10 minutes. After incubation, the substrate and ATP were added and incubated for further 60 minutes. After 60 minutes, ADP-Glo™ was added and plate was incubated for another 40 minutes. After 40 minutes, Kinase Detection Reagent was added and the plate was incubated for 45 minutes. After 45 minutes, plate was read on Perkin Elmer EnVision using luminescence read (0.5 seconds/well).

T1 sequence (Q99683 649-946 limits assumed): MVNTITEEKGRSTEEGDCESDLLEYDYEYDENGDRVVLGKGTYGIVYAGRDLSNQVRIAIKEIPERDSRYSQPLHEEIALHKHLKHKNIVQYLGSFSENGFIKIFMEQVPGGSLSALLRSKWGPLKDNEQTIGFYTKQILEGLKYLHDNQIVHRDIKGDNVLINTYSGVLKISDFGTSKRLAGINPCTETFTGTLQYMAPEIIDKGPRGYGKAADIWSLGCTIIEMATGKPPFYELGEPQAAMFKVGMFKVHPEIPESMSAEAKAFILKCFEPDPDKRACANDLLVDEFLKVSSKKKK

Compound | IC50 [µM]
2-(6-(4-cyclopropyl-4H-1,2,4-triazol-3-yl)pyridin-2-yl)-5-isopropoxy-6-(pyridin-3-yl)isoindolin-1-one [Compound 70] | < 0.2
Cn1ccc(-c2ccc3c(c2)CN(c2cccc(-c4nncn4C4CC4)n2)C3=O)n1 [Compound 27] | < 0.2
CN(C)c1ccc2c(c1)CN(c1cccc(-c3nncn3C3CC3)n1)C2=O [Compound 34] | < 0.2
O=C(Nc1cc2c(cc1F)CN(c1cccc(-c3nncn3C3CC3)n1)C2=O)C1CC1 [Compound 75, N-(2-(6-(4-cyclopropyl-4H-1,2,4-triazol-3-yl)pyridin-2-yl)-6-fluoro-3-oxoisoindolin-5-yl)cyclopropanecarboxamide] | 0.2 to 1

What follows are compounds tested on LPS-induced TNFalpha in human PBMCs (assay: Inhibition of LPS-induced TNFalpha in human PBMCs (ELISA)). Settings: PBMC, 100 ng/ml LPS, 6 hr, read-out: TNFa Inhibition IC50.
Type: cell-based
Protocol: Cryopreserved human PBMCs were obtained from AllCells (cat #PB003F). After thawing/dilution protocols using RPMI medium supplemented with 5% FBS (heat inactivated), 100 ul/well of 1×10^6 cells/ml were plated into 96 well tissue culture plates (Corning). Cells were then pre-incubated for 1 hr at 37° C. in humidified 5% CO2 and 95% air with test compounds diluted in DMSO (final DMSO concentration 0.3%). Each compound was tested at 10 concentrations in duplicate wells. After the pre-incubation, 100 ng/ml LPS (E. Coli; Sigma) in RPMI media with 5% FBS was added for a 6 hr incubation at 37° C. in humidified 5% CO2 and 95% air. Controls on each plate included cells and LPS only, cells and media only (no LPS), and media only. After the 6 hr incubation, plates were centrifuged and the supernatants transferred to a new plate and frozen for subsequent TNFalpha analysis. Human TNFalpha was analyzed by ELISA according to the manufacturer's instructions (BD Sciences, BD OptEIAm Cat #550610) and analyzed on a SpectraMax M series (Molecular Devices) microplate reader at OD 450 nm. IC50s were calculated using XLFit4 curve fitting software (IDBS) and a 4-parameter one-site sigmoid dose response fit.

Compound | IC50 [µM]
O=C(c1ccc2c(c1)CN(c1cccc(-c3nncn3C3CC3)n1)C2=O)N1CCOCC1 [Compound 7, 2-(6-(4-cyclopropyl-4H-1,2,4-triazol-3-yl)pyridin-2-yl)-5-(morpholine-4-carbonyl)isoindolin-1-one] | > 10
O=C(c1ccc2c(c1)CN(c1cccc(-c3nncn3C3CC3)n1)C2=O)N1CCC(O)CC1 [Compound 12, 2-(6-(4-cyclopropyl-4H-1,2,4-triazol-3-yl)pyridin-2-yl)-5-(4-hydroxypiperidine-1-carbonyl)isoindolin-1-one] | > 10
CC1(O)CCN(C(=O)c2ccc3c(c2)CN(c2cccc(-c4nncn4C4CC4)n2)C3=O)CC1 [Compound 13, 2-(6-(4-cyclopropyl-4H-1,2,4-triazol-3-yl)pyridin-2-yl)-5-(4-hydroxy-4-methylpiperidine-1-carbonyl)isoindolin-1-one] | > 10
CC(=O)N1CCN(C(=O)c2ccc3c(c2)CN(c2cccc(-c4nncn4C4CC4)n2)C3=O)CC1 [Compound 16, 5-(4-acetylpiperazine-1-carbonyl)-2-(6-(4-cyclopropyl-4H-1,2,4-triazol-3-yl)pyridin-2-yl)isoindolin-1-one] | > 10
CC(=O)NC1CCN(C(=O)c2ccc3c(c2)CN(c2cccc(-c4nncn4C4CC4)n2)C3=O)CC1 [Compound 17, N-(1-(2-(6-(4-cyclopropyl-4H-1,2,4-triazol-3-yl)pyridin-2-yl)-1-oxoisoindoline-5-carbonyl)piperidin-4-yl)acetamide] | > 10
O=C1c2cc(-c3cnc(C4CC4)cn3)ccc2CN1c1cccc(-c2nncn2C2CC2)n1 [Compound 60, 2-(6-(4-cyclopropyl-4H-1,2,4-triazol-3-yl)pyridin-2-yl)-6-(5-cyclopropylpyrazin-2-yl)isoindolin-1-one] | > 10

From US20210087167A1, “ASK1 INHIBITOR COMPOUNDS AND USES THEREOF” (SEAL ROCK THERAPEUTICS, INC., priority 2017, published 2021)
